Among the data in US12083101B2, “Biaryl derivatives as YAP/TAZ-TEAD protein-protein interaction inhibitors” (Novartis AG, priority 2020, dated 2024) are GI50 and IC50 values, retold here.

The subject of test [1] is NCI-H2052 Tet-On shYAP_2371 pLenti6 MCAT_Luc cells. Briefly: Proliferation assay (resazurin), NCI-H2052. The format is cell-based. Particulars: 72 hours incubation. The procedure, abridged:
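The NCI-H2052 line carries a Tet-inducible shRNA against the YAP1 3′UTR and an MCAT luciferase reporter. The day after seeding, it received eleven 2-fold compound dilutions at 0.1% DMSO, and viability was read by resazurin fluorescence.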
In general terms: Alamar Blue is a resazurin reagent that responds to reducing activity.

Test [2] relates to MKN-45/Ubc-luc cells. Briefly: Reporter gene specificity control (Ubc-luciferase), MKN-45. Background: A reporter such as luciferase makes a cellular process visible.
Description: As a specificity control, MKN-45 cells were stably transduced with a Ubc-Luc reporter construct, in which constitutive expression of firefly luciferase is driven by the promoter of the ubiquitin C housekeeping gene.
Stock solutions of compounds were prepared at a concentration of 10 mM in DMSO and stored at 4° C. Where necessary to afford a full dose-response curve, the stock solutions were pre-diluted in DMSO to 1'000-fold the desired reduced start concentration. On the day after cell seeding, eleven 2-fold serial dilutions of each compound were dispensed directly into the cell assay plates using a HP 300D non-contact Digital Dispenser (TECAN, Mannedorf, Switzerland). The final concentration of DMSO was normalized to 0.1% in all wells.
The ability of compounds to inhibit YAP-dependent transcription was assessed in NCI-H2052 Tet-On shYAP_2371 pLenti6 MCAT_Luc cells, while specificity (lack of unspecific inhibition of luciferase expression of activity) was assessed in MKN-45/Ubc-luc cells. […] Following incubation for 24 hours at 37° C., compound-mediated modulation of reporter-gene activity was quantified 5 min after addition of 20 μl BrightGlo (Promega, Cat #E2620), by measuring luminescence intensity on a multi-mode plate-reader (TECAN, Männedorf, Switzerland, Integration time 100 ms). For data analysis, the assay background value determined in wells containing medium, but no cells, was subtracted from all data points. Dose-dependent compound effects were expressed as % of vehicle-treated control (luminescence signal produced by cells receiving DMSO only) and IC50s calculated using a four-parametric fit model.
Test [3] deals with MKN-45/Ubc-luc cells. Briefly: Proliferation assay (resazurin), MKN-45. Particulars: 72 hours incubation. The format is cell-based.
The subject of test [4] is NCI-H2052 Tet-On shYAP_2371 pLenti6 MCAT_Luc cells (YAP-dependent transcription). Briefly: YAP reporter gene activity assay (MCAT-luciferase), NCI-H2052. The format is cell-based. Particulars: 24 hours incubation, BrightGlo luminescence. The procedure, abridged:
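Luminescence was read 5 min after BrightGlo, following 24 h at 37 °C of compound exposure (eleven 2-fold dilutions, DMSO normalized to 0.1%). Cells were NCI-H2052 with a YAP-responsive MCAT-luciferase and a Tet-inducible shRNA against YAP1 3′UTR. Cell-free background was removed, values were normalized to vehicle, and IC50 was fitted with four parameters.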

Test [5] addresses Avi-humanTEAD4 217-434 / Cy5 labeled humanYAP 60-100 (Homo sapiens (Human), UniProt Q15561). Briefly: TR-FRET YAP-TEAD4 in-vitro biochemical assay. Particulars: 1 nM Avi-humanTEAD4 217-434, 20 nM Cy5-humanYAP 60-100, 1 h room temperature. The format is binding. (Time-resolved FRET reads energy transfer from a long-lived donor to a nearby acceptor.)
The mark [6] stands for this setting: Homo sapiens, MKN-45, 24 h, read-out: Reporter gene assay MKN-45 IC50 [μM], MKN-45/Ubc-luc cells (YAP deleted, specificity control), 24 hours incubation.
The mark [7] stands for this setting: read-out: Reporter gene assay MKN-45 IC50, MKN-45/Ubc-luc cells (YAP deleted, specificity control), 24 hours incubation.

Like-named read-outs stand apart in the source and are kept apart here. A value given as a limit tells only on which side of the number the result lay.

Avi-humanTEAD4 217-434 / Cy5 labeled humanYAP 60-100, sequence (Q15561 217-434): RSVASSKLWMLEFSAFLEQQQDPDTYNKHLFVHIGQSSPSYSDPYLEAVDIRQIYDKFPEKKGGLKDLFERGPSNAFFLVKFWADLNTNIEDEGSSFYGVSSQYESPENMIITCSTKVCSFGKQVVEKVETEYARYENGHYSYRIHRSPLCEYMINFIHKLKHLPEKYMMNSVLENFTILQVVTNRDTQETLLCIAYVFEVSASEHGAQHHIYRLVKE

The GI50 is the concentration at which growth is held to half of that of the control. As for `NC(=O)c1ccc(OC(F)F)c(F)c1-c1c(Cl)c(F)cc2c1C[C@](c1ccccc1)(C1CC(O)CN1)O2` (single isomer, unassigned) [Example 158], the GI50 in test [1] (Homo sapiens, NCI-H2052, 72 h) was 181 nM; in test [3] (Homo sapiens), greater than 10000 nM. Moreover, the IC50 in test [2] (setting [6]) was greater than 10 µM; in test [4] (Homo sapiens, NCI-H2052, 24 h), 93 nM; in test [5], 5 nM.

For the compound `Fc1cc2c(c(-c3ccccc3)c1Cl)C[C@](c1ccccc1)(C1COCCN1)O2` (single isomer, unassigned) [Example 162], the GI50 is 1760 nM in test [1] (Homo sapiens, NCI-H2052, 72 h) and greater than 10000 nM in test [3] (Homo sapiens). Besides, the IC50 was greater than 10 µM in test [2] (setting [6]); 1000 nM in test [4] (Homo sapiens, NCI-H2052, 24 h); 1520 nM in test [5].

With `CS(=O)(=O)[C@H]1CC[C@@H](NC[C@@]2(c3ccccc3)Cc3c(cc(F)c(Cl)c3-c3c(C(N)=O)ccc(OC(F)F)c3F)O2)CC1` [Example 54a, 2-((2S,4S)-5-Chloro-6-fluoro-2-((((cis)-4-(methylsulfonyl)cyclohexyl)amino)methyl)-2-phenyl-2,3-dihydrobenzofuran-4-yl)-4-(difluoromethoxy)-3-fluorobenzamide], the concentration for 50% growth inhibition (GI50) in test [1] (Homo sapiens, NCI-H2052, 72 h) is 670 nM; in test [3] (Homo sapiens), greater than 10000 nM. Moreover, the IC50 in test [2] (setting [6]) was greater than 10 µM; in test [4] (Homo sapiens, NCI-H2052, 24 h), 147 nM; in test [5], 75 nM.

As for `CS(=O)(=O)[C@H]1CC[C@H](NC[C@@]2(c3ccccc3)Cc3c(cc(F)c(Cl)c3-c3c(C(N)=O)ccc(OC(F)F)c3F)O2)CC1` [Example 54b, 2-((2S,4S)-5-chloro-6-fluoro-2-((((trans)-4-(methylsulfonyl)cyclohexyl)amino)methyl)-2-phenyl-2,3-dihydrobenzofuran-4-yl)-4-(difluoromethoxy)-3-fluorobenzamide], the GI50 was 258 nM in test [1] (Homo sapiens, NCI-H2052, 72 h) and greater than 10000 nM in test [3] (Homo sapiens). Further, the IC50 is greater than 10 µM in test [2] (setting [6]); 118 nM in test [4] (Homo sapiens, NCI-H2052, 24 h); 22 nM in test [5].

In the case of `CNC(=O)c1ccc(OCCO)c(F)c1-c1c(Cl)c(F)cc2c1C[C@](c1ccccc1)(C1CCN1)O2` (stereo partly drawn) [Example 149, 2-((2S,4S)-2-(Azetidin-2-yl)-5-chloro-6-fluoro-2-phenyl-2,3-dihydrobenzofuran-4-yl)-3-fluoro-4-(2-hydroxyethoxy)-N-methylbenzamide], the GI50 in test [1] (Homo sapiens, NCI-H2052, 72 h) was 100 nM; in test [3] (Homo sapiens), greater than 10000 nM. For the same compound, the IC50 was greater than 10 µM in test [2] (setting [6]); 96 nM in test [4] (Homo sapiens, NCI-H2052, 24 h); 5 nM in test [5].

In the case of `CNC(=O)c1ccc(OC[C@H](C)O)c(F)c1-c1c(Cl)c(F)cc2c1[C@H](C)[C@](c1ccccc1)(C1CCN1)O2` (stereo partly drawn) [Example 150, 2-((2S,3S,4S)-2-(Azetidin-2-yl)-5-chloro-6-fluoro-3-methyl-2-phenyl-2,3-dihydrobenzofuran-4-yl)-3-fluoro-4-((S)-2-hydroxypropoxy)-N-methylbenzamide], the concentration for 50% growth inhibition (GI50) in test [1] (Homo sapiens, NCI-H2052, 72 h) was 85 nM; in test [3] (Homo sapiens), greater than 10000 nM. The IC50 was greater than 10 µM in test [2] (setting [6]); 74 nM in test [4] (Homo sapiens, NCI-H2052, 24 h); 4 nM in test [5].

Take `C[C@H](O)COc1ccc(C(N)=O)c(-c2c(Cl)c(F)cc3c2C[C@](c2ccccc2)(C2CC(C)(O)CN2)O3)c1F` (stereo partly drawn) [Example 159, 2-((2S,4S)-5-Chloro-6-fluoro-2-(4-hydroxy-4-methylpyrrolidin-2-yl)-2-phenyl-2,3-dihydrobenzofuran-4-yl)-3-fluoro-4-((S)-2-hydroxypropoxy)benzamide]: the GI50 in test [1] (Homo sapiens, NCI-H2052, 72 h) was 856 nM; in test [3] (Homo sapiens) it was greater than 15000 nM. Further, the IC50 was greater than 15 µM in test [2] (setting [6]); 1060 nM in test [4] (Homo sapiens, NCI-H2052, 24 h); 122 nM in test [5].

Regarding `COc1ccc(C(N)=O)c(-c2c(Cl)c(F)cc3c2[C@H](O)[C@](c2ccccc2)(C2CCCN2)O3)c1F` (stereo partly drawn) [Example 164, 2-((2S,3S,4S)-5-chloro-6-fluoro-3-hydroxy-2-phenyl-2-(pyrrolidin-2-yl)-2,3-dihydrobenzofuran-4-yl)-3-fluoro-4-methoxybenzamide], the GI50 in test [1] (Homo sapiens, NCI-H2052, 72 h) is 107 nM; in test [3] (Homo sapiens), greater than 10000 nM. The IC50 in test [2] (setting [6]) was greater than 10 µM; in test [4] (Homo sapiens, NCI-H2052, 24 h), 107 nM; in test [5] it was 4 nM.

Consider `COc1ccc(C(N)=O)c(-c2c(Cl)c(F)cc3c2[C@H](OC)[C@](c2ccccc2)(C2CCCN2)O3)c1F` (stereo partly drawn) [Example 165, 2-((2S,3S,4S)-5-chloro-6-fluoro-3-methoxy-2-phenyl-2-(pyrrolidin-2-yl)-2,3-dihydrobenzofuran-4-yl)-3-fluoro-4-methoxybenzamide], for which the GI50 was 131 nM in test [1] (Homo sapiens, NCI-H2052, 72 h) and greater than 10000 nM in test [3] (Homo sapiens). For the same compound, the IC50 in test [2] (setting [6]) is greater than 10 µM; in test [4] (Homo sapiens, NCI-H2052, 24 h), 82 nM; in test [5] it was 5 nM.

In the case of `CO[C@H]1c2c(cc(F)c(Cl)c2-c2c(C(N)=O)ccc(OCCO)c2F)O[C@@]1(c1ccccc1)C1CCCN1` (stereo partly drawn) [Example 166, 2-((2S,3S,4S)-5-chloro-6-fluoro-3-methoxy-2-phenyl-2-(pyrrolidin-2-yl)-2,3-dihydrobenzofuran-4-yl)-3-fluoro-4-(2-hydroxyethoxy)benzamide], the concentration for 50% growth inhibition (GI50) in test [1] (Homo sapiens, NCI-H2052, 72 h) was 256 nM; in test [3] (Homo sapiens) it was greater than 10000 nM. Further, the IC50 was greater than 10 µM in test [2] (setting [6]); 136 nM in test [4] (Homo sapiens, NCI-H2052, 24 h); 8 nM in test [5].

On to `C[C@H](O)COc1ccc(C(N)=O)c(-c2c(Cl)c(F)cc3c2[C@H](C)[C@](c2ccccc2)(C2CCCN2)O3)c1F` (stereo partly drawn) [Example 167, 2-((2S,3S,4S)-5-chloro-6-fluoro-3-methyl-2-phenyl-2-(pyrrolidin-2-yl)-2,3-dihydrobenzofuran-4-yl)-3-fluoro-4-((S)-2-hydroxypropoxy)benzamide], for which the GI50 in test [1] (Homo sapiens, NCI-H2052, 72 h) is 82 nM; in test [3] (Homo sapiens), greater than 10000 nM. The IC50 in test [2] (setting [6]) was greater than 10 µM; in test [4] (Homo sapiens, NCI-H2052, 24 h), 58 nM; in test [5] it was 10 nM.

Turning to `COc1ccc(C(N)=O)c(-c2c(Cl)ccc3c2C[C@](c2ccccc2)(C(C)N)O3)c1F` (stereo partly drawn) [Example 168, 2-((2S,4S)-2-(1-Aminoethyl)-5-chloro-2-phenyl-2,3-dihydrobenzofuran-4-yl)-3-fluoro-4-methoxybenzamide], the 50% growth inhibitory concentration (GI50) in test [1] (Homo sapiens, NCI-H2052, 72 h) was 267 nM; in test [3] (Homo sapiens) it was greater than 10000 nM. In addition, the IC50 is greater than 10 µM in test [2] (setting [6]); 253 nM in test [4] (Homo sapiens, NCI-H2052, 24 h); 12 nM in test [5].

For `COCCOc1ccc(C(N)=O)c(-c2c(Cl)c(F)cc3c2[C@H](C)[C@](c2ccccc2)(C(C)N)O3)c1F` (stereo partly drawn) [Example 169, 2-((2S,3S,4S)-2-(1-Aminoethyl)-5-chloro-6-fluoro-3-methyl-2-phenyl-2,3-dihydrobenzofuran-4-yl)-3-fluoro-4-(2-methoxyethoxy)benzamide], the GI50 was 246 nM in test [1] (Homo sapiens, NCI-H2052, 72 h) and 7830 nM in test [3] (Homo sapiens). For the same compound, the IC50 in test [2] (setting [6]) is greater than 10 µM; in test [4] (Homo sapiens, NCI-H2052, 24 h), 153 nM; in test [5], 7 nM.

In the case of `COc1ccc(C(N)=O)c(-c2c(Cl)c(F)cc3c2C[C@](c2ccccc2)([C@@H]2CCCN2)O3)c1F` [Example 174, 2-((2S,4S)-5-Chloro-6-fluoro-2-phenyl-2-((S)-pyrrolidin-2-yl)-2,3-dihydrobenzofuran-4-yl)-3-fluoro-4-methoxybenzamide], the GI50 was 21 nM in test [1] and 11000 nM in test [3]. The figures for the IC50 in test [2] (setting [7]), in test [4] and in test [5] were 12 µM, 37 nM and 3 nM, respectively.

As to `CNC(=O)c1ccc(OC)c(F)c1-c1c(Cl)c(F)cc2c1C[C@](c1ccccc1)([C@@H]1CCCN1)O2` [Example 175, 2-((2S,4S)-5-Chloro-6-fluoro-2-phenyl-2-((S)-pyrrolidin-2-yl)-2,3-dihydrobenzofuran-4-yl)-3-fluoro-4-methoxy-N-methylbenzamide], the GI50 in test [1] worked out at 50 nM; in test [3], 7000 nM. Also, the IC50 was determined as 13 µM in test [2] (setting [7]), 62 nM in test [4] and 4 nM in test [5].

Regarding `COc1ccc(C(N)=O)c(-c2c(Cl)c(F)cc3c2[C@H](C)[C@@](CN)(c2ccccc2)O3)c1F` [Example 176, 2-((2S,3S,4S)-2-(Aminomethyl)-5-chloro-6-fluoro-3-methyl-2-phenyl-2,3-dihydrobenzofuran-4-yl)-3-fluoro-4-methoxybenzamide], the 50% growth inhibitory concentration (GI50) in test [1] amounted to 21 nM; in test [3], 16000 nM. The IC50 worked out at 11 µM in test [2] (setting [7]), 18 nM in test [4] and 3 nM in test [5].
